Reference: publication PMC7957565 (Molecules, 2021)

Experiments:
[1] = target: T1, AChE (from electric eel) (Electrophorus electricus, UniProt O42275); experiment: biochemical; conditions: eeAChE; for IC50: mean ± spread
T1 construct: purchased Sigma-Aldrich

[2] = target: butyrylcholinesterase (BuChE, from equine serum) (Equus caballus, UniProt P81908); experiment: biochemical; conditions: eqBuChE; mean ± spread
[3] = test system: primary cortical neurons; experiment: Neuroprotection against OGD/R injury, MTT cell viability; format: cell-based; conditions: Rattus norvegicus, Primary cortical neuron, compound 10 μM, control 100%, OGD/R group 40.4%, read-out: Cell viability (MTT) after OGD/R
Method: The parental compounds Clau F and CZ-7 have remarkable neuroprotective effects. To further confirm whether the derivatives retain activity, an OGD/R model was performed in primary cortical neurons, and 3-(4,5-dimethylthiazol-2-yl)-2,5-diphenyltetrazolium bromide (MTT) assays were used to test cell viability. […]. According to the experimental results above, compound 6bd was selected as the candidate compound for the subsequent investigations.
[…]. All cell suspensions were grown in neurobasal/B27 medium with 100-U/mL penicillin and 100-μg/mL streptomycin. The cells were plated in poly-L-lysine (PLL, 0.1 mg/mL)-coated multiwell plates or chamber slides and maintained at 37 °C in a humidified atmosphere of 5% CO2 and 95% air. Seven day cultures were used for treatment. The treatment methods were similar to those used for PC12, but the concentrations of H2O2 and sodium dithionite were 100 μM and 2 mM, respectively.
Cell viability was determined by MTT assay. Cells were incubated with 5 mg/mL MTT (10 μL) at 37 °C for 4 h. The formazan crystals were dissolved, and absorbance was determined at 570 nm using a Microplate Reader (Thermo, Germany). The cell viability was expressed as a percentage of the optical density (OD) value of the control cultures.
Figure 2 Neuroprotective activity screening of 6aa–ad, 6ba–bf, 6ca–cd, and CZ-7 at 10 μM in primary cortical neurons induced by oxygen–glucose deprivation/reoxygenation (OGD/R). Neurons were exposed to […] sodium dithionite and reoxygenation. A 3-(4,5-dimethylthiazol-2-yl)-2,5-diphenyltetrazolium bromide (MTT) assay was used to test the cell viability. The absorbance of normal cells was regarded as 100%. Error bars represent the standard deviation. ### p < 0.001 vs. control; ** p < 0.05, *** p < 0.01 vs. model (means ± standard deviation, n = 6).

[4] = parameters: method as in PMID 29202406; conditions: cited from earlier work
[5] = test system: ICR (Institute of Cancer Research) mice; conditions: oral 1 g/kg dose; cited from earlier work
[6] = in vitro; format: in vitro ADME; conditions: PAMPA-BBB
Method: A blood–brain barrier (BBB) penetration assay in vitro is essential for anti-AD drug development. […] The compounds’ blood–brain barrier penetration was evaluated by using the parallel artificial membrane permeation assay (PAMPA) described by Di et al.. The two commercial drugs were purchased from Aladdin (China). Porcine brain lipid was obtained from Sigma (China). The donor microplate (polyvinylidene fluoride (PVDF) membrane, pore size 0.45 μm) and acceptor microplate were both from Millipore (China). The 96-well ultraviolet (UV) plate (COSTAR) was from Corning Incorporated (USA). The detailed procedure was described in [26, 27].

[7] = Singlet oxygen scavenging by ESR spectroscopy (TEMP, UVA light); format: physicochemical; conditions: 10^−2 mol/L compound, 5 × 10^−2 mol/L TEMP in DMSO, UVA light 1 min
Method: Oxidative stress caused by reactive oxygen (for example, singlet oxygen and hydroxyl radical) is related to the death of neurons and the formation of intracellular Aβ oligomer. Drugs designed to prevent the formation or removal of free radicals in the brain are beneficial for AD. The main technique for detecting organic free radicals is electron spin resonance (ESR) spectroscopy. This technology can detect radical concentrations on the order of 10 nM or less under favorable conditions and has high sensitivity. Therefore, compound 6bd was tested for its ability to scavenge active oxygen by using ESR spectroscopy. For comparison, edaravone (Eda) was used as a reference.
ESR signals were recorded with a 10 mW incident microwave and […] field modulation of 1 G. The scan width was 150 G for 2, 2, 6, 6-tetramethylpiperidine (TEMP) experiments. All measurements were performed at room temperature (RT). Briefly, 5 × 10^−2 mol/L TEMP and 10^−2 mol/L 6bd or Eda were mixed in DMSO, and ESR signals were obtained after exposure to UVA light for 1 min.

Sequence of butyrylcholinesterase (BuChE, from equine serum) (P81908 whole entry): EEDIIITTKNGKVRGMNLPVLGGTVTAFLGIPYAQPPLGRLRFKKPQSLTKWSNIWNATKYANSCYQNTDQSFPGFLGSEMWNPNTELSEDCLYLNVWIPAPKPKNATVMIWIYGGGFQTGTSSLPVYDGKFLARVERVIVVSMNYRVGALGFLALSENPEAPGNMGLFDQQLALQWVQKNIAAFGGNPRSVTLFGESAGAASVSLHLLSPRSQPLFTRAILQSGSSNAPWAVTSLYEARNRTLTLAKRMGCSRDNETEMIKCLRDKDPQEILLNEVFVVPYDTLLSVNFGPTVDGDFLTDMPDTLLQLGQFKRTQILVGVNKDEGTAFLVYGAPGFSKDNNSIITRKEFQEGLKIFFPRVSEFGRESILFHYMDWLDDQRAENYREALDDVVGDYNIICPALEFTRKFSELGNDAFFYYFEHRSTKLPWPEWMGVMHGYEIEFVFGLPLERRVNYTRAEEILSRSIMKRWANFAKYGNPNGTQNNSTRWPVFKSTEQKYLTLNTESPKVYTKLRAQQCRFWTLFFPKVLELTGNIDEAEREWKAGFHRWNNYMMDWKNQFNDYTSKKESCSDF
T1 sequence (O42275 24-633): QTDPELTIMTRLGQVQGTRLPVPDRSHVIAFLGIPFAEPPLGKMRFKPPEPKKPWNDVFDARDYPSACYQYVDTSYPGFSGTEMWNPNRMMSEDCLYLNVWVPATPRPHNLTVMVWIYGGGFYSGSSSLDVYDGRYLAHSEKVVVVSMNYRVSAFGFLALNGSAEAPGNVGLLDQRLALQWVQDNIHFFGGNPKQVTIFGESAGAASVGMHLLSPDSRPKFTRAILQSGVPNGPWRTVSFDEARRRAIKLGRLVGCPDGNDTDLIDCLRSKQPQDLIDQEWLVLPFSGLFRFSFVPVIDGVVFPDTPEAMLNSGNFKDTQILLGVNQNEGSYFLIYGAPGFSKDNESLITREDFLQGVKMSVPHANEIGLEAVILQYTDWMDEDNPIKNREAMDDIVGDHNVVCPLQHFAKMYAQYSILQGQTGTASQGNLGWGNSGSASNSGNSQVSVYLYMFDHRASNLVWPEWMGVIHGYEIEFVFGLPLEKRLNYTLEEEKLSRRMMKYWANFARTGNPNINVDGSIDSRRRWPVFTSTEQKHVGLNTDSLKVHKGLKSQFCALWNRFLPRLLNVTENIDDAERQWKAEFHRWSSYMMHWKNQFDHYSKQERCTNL

Row | SMILES | inhibition at 100 µM ([1]; compound at 100 μM, read-out: AChE inhibition rate (%) in 100 μM) [%] | IC50 [2] [µM] | viability at 10 µM [3] [%] | Exposure in the brain relative to plasma [4] [fold] | Acute toxicity finding [5] | IC50 [1] [nM] | Brain penetration classification [6] | Papp ([6]; means ± SD of three independent experiments, read-out: Permeability Pe, Experiment) [×10⁻⁶ cm/s] | Singlet oxygen scavenging compared with edaravone (Eda) [7]
1 | Cc1cc2c([nH]c3ccc(C(C)(C)C)cc32)c2c1OC(C)(C)C=C2 [CZ-7, reference compound] | 32.5 ± 6.52 | 59.5 ± 5.62 | 113 | 4.3 | no toxic side effects | – | – | – | –
2 | CC1(C)C=Cc2c(c(/C=C/C(=O)NCC3CCN(Cc4ccccc4F)CC3)cc3c2[nH]c2ccc(C(C)(C)C)cc23)O1 [Compound 6bb, (E)-3-(8-(tert-Butyl)-3,3-dimethyl-3,11-dihydropyrano[3,2-a]carbazol-5-yl)-N-((1-(2-fluorobenzyl)piperidin-4-yl)methyl)acrylamide] | – | 5.63 ± 0.31 | 109 | – | – | 4080 ± 120 | – | – | –
3 | CC1(C)C=Cc2c(c(/C=C/C(=O)NCC3CCN(Cc4ccccc4Cl)CC3)cc3c2[nH]c2ccc(C(C)(C)C)cc23)O1 [Compound 6bd, (E)-3-(8-(tert-Butyl)-3,3-dimethyl-3,11-dihydropyrano[3,2-a]carbazol-5-yl)-N-((1-(2-chlorobenzyl)piperidin-4-yl)methyl)acrylamide] | – | 5.46 ± 0.61 | 126 | – | – | 4340 ± 460 | good brain penetration | 4.38 ± 0.05 | stronger effect
4 | CC1(C)C=Cc2c(c(/C=C/C(=O)NCC3CCN(Cc4cccc(Cl)c4)CC3)cc3c2[nH]c2ccc(C(C)(C)C)cc23)O1 [Compound 6be, (E)-3-(8-(tert-Butyl)-3,3-dimethyl-3,11-dihydropyrano[3,2-a]carbazol-5-yl)-N-((1-(3-chlorobenzyl)piperidin-4-yl)methyl)acrylamide] | – | 6.36 ± 1.21 | 105 | – | – | 1690 | – | – | –
5 | CC1(C)C=Cc2c(c(/C=C/C(=O)NCC3CCN(Cc4ccc(Cl)cc4)CC3)cc3c2[nH]c2ccc(C(C)(C)C)cc23)O1 [Compound 6bf, (E)-3-(8-(tert-Butyl)-3,3-dimethyl-3,11-dihydropyrano[3,2-a]carbazol-5-yl)-N-((1-(4-chlorobenzyl)piperidin-4-yl)methyl)acrylamide] | – | 12.1 ± 0.76 | 107 | – | – | 1630 ± 300 | – | – | –
